Reference: patent US20150368248A1, “2-SUBSTITUTED-6-BIARYLMETHYLAMINO-9-CYCLOPENTYL-9H-PURINE DERIVATIVES, USE THEREOF AS MEDICAMENTS, AND PHARMACEUTICAL COMPOSITIONS” (UNIVERZITA PALACKEHO V OLOMOUCI, priority 2013, published 2015)
Read-outs that look alike come from different tables or passages of the source.

Legend:
Hep3B = experiment: MTT cytotoxicity assay (Example 30); format: cell-based, human; details: Homo sapiens, Hep3B, 72 h; MTT, three days after drug addition; read-out: Inhibitory concentration IC50, Hep3B
CDK5/p35 = biological target: T1, CDK5/p35 (Homo sapiens, UniProt Q00535); experiment: Kinase inhibition assay, recombinant kinase, [γ-33P]ATP; format: biochemical; details: read-out: Residual kinase activity, CDK5; for remaining activity at 0.1 µM: 100 nM; for remaining activity at 1 µM: 1000 nM
T1 construct: purchased ProQinase GmbH (Freiburg, Germany)
Method: (§1) CDK2/Cyclin E kinase was produced in Sf9 insect cells via baculoviral infection and purified on a NiNTA column (Qiagen). CDK5/p35, CDK7Cyclin H/MAT1 and CDK9/Cyclin T1 was purchased from ProQinase GmbH. The kinase reactions were assayed with 1 mg/mL histone H1 (for CDK2 and CDK5) or (YSPTSPS)2KK peptide (for CDK7 and CDK9) in the presence of 15/0.15/1.5/1.5 μM ATP (for CDK2/CDK5/CDK7CDK9), 0.05 μCi [γ-^33P]ATP and of the test compound in a final volume of 10 μL, all in a reaction buffer (60 mM HEPES-NaOH, pH 7.5, 3 mM MgCl2, 3 mM MnCl2, 3 μM Na-orthovanadate, 1.2 mM DTT, 2.5 μg/50 μl PEG20,000). The reactions were stopped by adding 5 μL of 3% aq H3PO4. Aliquots were spotted onto P-81 phosphocellulose (Whatman), washed 3× with 0.5% aq H3PO4 and finally air-dried.
(§2) CDK1/cyclin B and CDK2/cyclin E kinases were produced in Sf9 insect cells via baculoviral infection, while CDK5/p35, CDK7/cyclin H/MAT1, and CDK9/cyclin T1 were purchased from ProQinase (Freiburg, Germany) and assayed as described previously (35). The kinase reactions were assayed with 1 mg/ml histone H1 (for CDK2 and CDK5) or (YSPTSPS)2KK peptide (for CDK7 and CDK9) in the presence of 15/0.15/1.5/1.5 […] ATP (for CDK2/CDK5/CDK7CDK9), […] [γ-^33P]ATP and of the test compound in a final volume of […]. The reaction buffer contained 60 mM HEPES-NaOH, pH 7.5, 3 mM MgCl2, 3 mM MnCl2, 3 mM Na-orthovanadate, 1.2 mM DTT, 2.5 mg/50 ml PEG20.000. The reactions were stopped by adding […] of 3% H3PO4. Aliquots were spotted onto P-81 phosphocellulose (Whatman, GE Healthcare Biosciences, Pittsburgh, USA), washed 3 times with 0.5% H3PO4 and finally air-dried. Kinase inhibition was quantified using a FLA-7000 digital image analyzer (Fujifilm, Tokyo, Japan).

CDK7/cyclin H/MAT1 = biological target: T2, CDK7/cyclin H/MAT1 (Homo sapiens, UniProt P50613); experiment: as above; format: biochemical; details: read-out: Residual kinase activity, CDK7; for remaining activity at 0.1 µM: 100 nM; for remaining activity at 1 µM: 1000 nM
T2 construct: purchased ProQinase GmbH (Freiburg, Germany)
Method: as §1, §2

CDK9/Cyclin T1 = biological target: T3, CDK9/Cyclin T1 (Homo sapiens, UniProt P50750); experiment: as above; format: biochemical; details: read-out: Residual kinase activity, CDK9; for remaining activity at 0.1 µM: 100 nM; for remaining activity at 1 µM: 1000 nM
T3 construct: purchased ProQinase GmbH (Freiburg, Germany)
Method: as §1, §2

[1] = test system: caspase-3/7 activity in Hep3B cell line; experiment: One-step cellular caspase-3/7 activity assay; format: cell-based, human; details: 24 hours, 0 nM = 1.00
In short: (§3)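 Hep3B or PLC/PRF/5 cells, plated overnight, were exposed to compounds for 24 h. Lysis buffer containing 150 μM Ac-DEVD-AMC substrate was added, and plates were incubated at 37° C. Caspase-3/7 activity was read as AMC fluorescence (ex 346/em 442 nm) after 6 h.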

[2] = test system: caspase-3/7 activity in PLC/PRF/5 cell line; experiment: One-step cellular caspase-3/7 activity assay; format: cell-based, human; details: 24 hours incubation, relative to 0 nM = 1.00
In short: as §3

[3] = test system: human umbilical vein endothelial cells (HUVEC); experiment: HUVEC proliferation, Calcein AM; format: cell-based; details: Homo sapiens, HUVEC, read-out: Inhibitory concentration for HUVEC cells - IC50
In short: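 Confluent HUVECs seeded in 96-well plates and exposed to compound for 24 or 72 h. Proliferation read by Calcein AM fluorescence.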

T2 sequence (P50613 whole entry): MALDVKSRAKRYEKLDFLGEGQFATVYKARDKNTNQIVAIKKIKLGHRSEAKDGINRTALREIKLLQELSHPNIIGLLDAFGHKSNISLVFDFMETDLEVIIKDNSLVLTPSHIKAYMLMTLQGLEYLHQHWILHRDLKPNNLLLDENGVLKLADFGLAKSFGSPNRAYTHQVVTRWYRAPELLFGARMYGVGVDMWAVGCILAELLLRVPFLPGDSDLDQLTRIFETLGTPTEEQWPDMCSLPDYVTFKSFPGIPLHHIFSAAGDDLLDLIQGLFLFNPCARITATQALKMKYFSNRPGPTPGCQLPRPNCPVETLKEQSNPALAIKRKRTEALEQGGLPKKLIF
T2 sequence (P51946 whole entry partner): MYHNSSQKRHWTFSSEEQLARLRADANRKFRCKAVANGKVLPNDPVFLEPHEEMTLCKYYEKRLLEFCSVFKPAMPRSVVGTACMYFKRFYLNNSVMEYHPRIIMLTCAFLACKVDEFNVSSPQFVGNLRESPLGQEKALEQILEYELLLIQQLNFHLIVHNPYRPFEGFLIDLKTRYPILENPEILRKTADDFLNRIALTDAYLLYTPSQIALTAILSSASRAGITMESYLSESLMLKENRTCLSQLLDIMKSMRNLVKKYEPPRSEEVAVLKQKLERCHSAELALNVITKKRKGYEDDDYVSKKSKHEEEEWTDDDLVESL
T2 sequence (P51948 whole entry partner): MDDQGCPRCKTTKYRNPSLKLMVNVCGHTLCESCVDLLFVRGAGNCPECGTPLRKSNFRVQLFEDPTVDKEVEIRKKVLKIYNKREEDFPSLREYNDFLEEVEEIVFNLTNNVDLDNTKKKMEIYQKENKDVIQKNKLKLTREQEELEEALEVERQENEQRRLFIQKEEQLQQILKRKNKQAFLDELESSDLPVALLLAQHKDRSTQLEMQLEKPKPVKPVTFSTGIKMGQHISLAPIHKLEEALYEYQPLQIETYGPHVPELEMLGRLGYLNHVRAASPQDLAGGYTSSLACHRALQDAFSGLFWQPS
T3 sequence (P50750 whole entry): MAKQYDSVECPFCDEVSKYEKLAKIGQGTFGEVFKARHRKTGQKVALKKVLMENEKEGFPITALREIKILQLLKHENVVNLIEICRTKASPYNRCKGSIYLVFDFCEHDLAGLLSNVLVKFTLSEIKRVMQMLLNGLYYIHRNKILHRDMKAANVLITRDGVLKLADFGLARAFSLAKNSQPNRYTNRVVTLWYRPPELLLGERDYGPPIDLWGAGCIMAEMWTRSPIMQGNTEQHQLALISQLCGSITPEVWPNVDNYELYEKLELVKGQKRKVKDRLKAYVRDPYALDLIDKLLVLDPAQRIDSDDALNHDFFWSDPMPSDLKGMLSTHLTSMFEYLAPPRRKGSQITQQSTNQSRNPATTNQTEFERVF
T3 sequence (O60563 whole entry partner): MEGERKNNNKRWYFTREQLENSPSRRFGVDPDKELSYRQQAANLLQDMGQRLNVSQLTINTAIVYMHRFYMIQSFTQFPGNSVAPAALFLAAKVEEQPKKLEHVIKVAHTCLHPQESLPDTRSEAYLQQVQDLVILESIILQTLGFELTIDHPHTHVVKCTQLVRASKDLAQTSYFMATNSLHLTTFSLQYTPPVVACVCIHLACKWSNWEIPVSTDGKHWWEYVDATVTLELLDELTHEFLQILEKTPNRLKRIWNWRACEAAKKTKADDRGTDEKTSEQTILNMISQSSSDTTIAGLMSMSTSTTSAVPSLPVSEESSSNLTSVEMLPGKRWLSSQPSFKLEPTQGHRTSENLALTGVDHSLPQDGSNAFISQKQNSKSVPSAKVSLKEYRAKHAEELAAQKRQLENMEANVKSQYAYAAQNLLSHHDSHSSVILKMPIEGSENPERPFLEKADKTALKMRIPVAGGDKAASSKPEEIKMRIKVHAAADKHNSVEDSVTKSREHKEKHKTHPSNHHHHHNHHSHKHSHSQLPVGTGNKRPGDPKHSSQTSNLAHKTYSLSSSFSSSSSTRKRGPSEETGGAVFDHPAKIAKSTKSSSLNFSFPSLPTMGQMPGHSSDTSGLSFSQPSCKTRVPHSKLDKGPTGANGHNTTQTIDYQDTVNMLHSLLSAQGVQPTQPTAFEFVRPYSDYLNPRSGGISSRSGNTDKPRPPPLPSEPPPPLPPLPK
T1 sequence (Q00535 whole entry): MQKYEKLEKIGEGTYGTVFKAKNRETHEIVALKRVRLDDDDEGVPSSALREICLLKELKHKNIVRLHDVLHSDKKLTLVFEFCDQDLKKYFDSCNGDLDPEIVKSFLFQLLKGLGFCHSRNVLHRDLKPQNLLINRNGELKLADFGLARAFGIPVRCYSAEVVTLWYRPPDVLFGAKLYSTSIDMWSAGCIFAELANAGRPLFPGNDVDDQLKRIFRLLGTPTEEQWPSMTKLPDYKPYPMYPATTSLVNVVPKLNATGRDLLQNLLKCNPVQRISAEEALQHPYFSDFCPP
T1 sequence (Q15078 whole entry partner): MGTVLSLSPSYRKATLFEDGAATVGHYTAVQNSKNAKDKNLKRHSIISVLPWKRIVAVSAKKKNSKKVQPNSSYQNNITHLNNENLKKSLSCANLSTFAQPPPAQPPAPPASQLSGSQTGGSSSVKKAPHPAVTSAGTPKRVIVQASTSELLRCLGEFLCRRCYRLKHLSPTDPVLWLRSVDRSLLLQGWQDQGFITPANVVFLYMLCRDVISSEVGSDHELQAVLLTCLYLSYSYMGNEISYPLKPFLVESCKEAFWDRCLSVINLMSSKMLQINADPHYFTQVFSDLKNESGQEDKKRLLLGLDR

| Compound | IC50 (Hep3B) | remaining activity at 0.1 µM (CDK5/p35) | remaining activity at 1 µM (CDK5/p35) | remaining activity at 0.1 µM (CDK7/cyclin H/MAT1) | remaining activity at 1 µM (CDK7/cyclin H/MAT1) | remaining activity at 0.1 µM (CDK9/Cyclin T1) | remaining activity at 1 µM (CDK9/Cyclin T1) | Relative caspase-3/7 activity in Hep3B cell line ([1]; 100 nM) | Relative caspase-3/7 activity in Hep3B cell line ([1]; 200 nM) | Relative caspase-3/7 activity in Hep3B cell line ([1]; 400 nM) | Relative caspase-3/7 activity in Hep3B cell line ([1]; 800 nM) | Relative caspase-3/7 activity in Hep3B cell line ([1]; 1600 nM) | Relative caspase-3/7 activity in PLC/PRF/5 cell line ([2]; compound concentration 40 nM) | Relative caspase-3/7 activity in PLC/PRF/5 cell line ([2]; compound concentration 80 nM) | Relative caspase-3/7 activity in PLC/PRF/5 cell line ([2]; compound concentration 160 nM) | Relative caspase-3/7 activity in PLC/PRF/5 cell line ([2]; compound concentration 320 nM) | Relative caspase-3/7 activity in PLC/PRF/5 cell line ([2]; compound concentration 640 nM) | Relative caspase-3/7 activity in PLC/PRF/5 cell line ([2]; compound concentration 1280 nM) | IC50 ([3]; 24 h) | IC50 ([3]; 72 h) |
| --- | --- | --- | --- | --- | --- | --- | --- | --- | --- | --- | --- | --- | --- | --- | --- | --- | --- | --- | --- | --- |
| NC1CCC(Nc2nc(NCc3ccc(-c4cccs4)nc3)c3ncn(C4CCCC4)c3n2)CC1 (stereo not shown) [BP30, N^2-(4-amino-cyclohexyl)-9-cyclopentyl-N^6-(6-thiophen-2-yl-pyridin-3-ylmethyl)-9H-purine-2,6-diamine] | 0.077 µM | 26% | 4.31% | 47.7% | 16.5% | 19.6% | 1.78% | 2.99 | 5.32 | 8.08 | 9.00 | 9.43 | 2.46 | 3.93 | >5.00 | >5.00 | >5.00 | >5.00 | 20.4 µM | 0.08 µM |
| NC1CCC(Nc2nc(NCc3ccc(-c4ccsc4)nc3)c3ncn(C4CCCC4)c3n2)CC1 (stereo not shown) [BP35, N^2-(4-amino-cyclohexyl)-9-cyclopentyl-N^6-(6-thiophen-3-yl-pyridin-3-ylmethyl)-9H-purine-2,6-diamine] | 0.207 µM | 65% | 8.7% | 64.1% | 33.5% | 32.8% | 2.39% | – | 1.01 | 5.59 | 6.07 | 9.10 | 1.10 | 2.37 | 2.97 | >5.00 | >5.00 | >5.00 | > 50 µM | 0.18 µM |
| NC1CCC(Nc2nc(NCc3ccc(-c4ccccc4O)nc3)c3ncn(C4CCCC4)c3n2)CC1 (stereo not shown) [BP20, N^2-(4-amino-cyclohexyl)-9-cyclopentyl-N^6-[6-(2-hydroxy-phenyl)-pyridin-3-ylmethyl]-9H-purine-2,6-diamine] | 0.032 µM | 47.6% | 19.4% | 48% | 17.3% | 21.1% | 0.59% | 4.42 | 5.37 | 8.25 | 9.63 | 9.95 | 3.15 | 2.66 | >5.00 | >5.00 | >5.00 | >5.00 | 29.2 µM | 0.57 µM |
| Nc1ccccc1-c1ccc(CNc2nc(NC3CCC(N)CC3)nc3c2ncn3C2CCCC2)cn1 (stereo not shown) [BP22, N^2-(4-amino-cyclohexyl)-9-cyclopentyl-N^6-[6-(2-amino-phenyl)-pyridin-3-ylmethyl]-9H-purine-2,6-diamine] | 0.487 µM | 87.8% | 89% | 70% | 93.9% | 93.4% | 82.8% | – | 0.81 | 0.80 | 0.81 | 1.18 | – | – | 0.72 | 1.08 | 1.92 | 3.50 | – | – |
| OC1CCC(Nc2nc(NCc3ccc(-c4ccco4)nc3)c3ncn(C4CCCC4)c3n2)CC1 (stereo not shown) [BP21, 4-{9-cyclopentyl-6-[(6-furan-2-yl-pyridin-3-ylmethyl)-amino]-9H-purine-2-ylamino}-cyklohexanol] | 0.487 µM | 88.2% | 23.4% | 72% | 48.5% | 49% | 7.74% | – | 1.15 | 1.18 | 4.36 | 7.19 | 0.69 | 1.20 | 2.19 | 3.39 | >5.00 | >5.00 | – | – |
